Measured values: paper PMC5107132 (European journal of pharmacology, 2016)

Tests used:
α3β3γ2 GABAA receptors [1] = molecular target: T1, α3β3γ2 GABAA receptors (Rattus norvegicus, UniProt P18508+P20236); details: 100 nM; ref Savić et al., 2010; cited from earlier work
α5β3γ2S GABAA receptors [2] = molecular target: T2, α5β3γ2S GABAA receptors (Rattus norvegicus, UniProt P18508+P19969); assay: 3H-flunitrazepam competition binding, α5β3γ2S; details: ratio of Ki values
α2β3γ2S GABAA receptors = α2β3γ2S GABAA receptors (Rattus norvegicus, UniProt P18508+P23576); details: read-out: Ki at α2β3γ2 GABAA receptors; ref Savić et al., 2010; cited from earlier work
α1β3γ2S GABAA receptors = α1β3γ2S GABAA receptors (Rattus norvegicus, UniProt P18508+P62813); details: read-out: Ki at α1β3γ2 GABAA receptors; ref Savić et al., 2010; cited from earlier work
κ opioid receptor (KOR) = κ opioid receptor (KOR) (Homo sapiens, UniProt P41145); details: read-out: Affinity at KOR; ref B. Roth et al., NIMH Psychoactive Drug Screening Program; cited from earlier work
α3β3γ2 GABAA receptors [3] = molecular target: T1, α3β3γ2 GABAA receptors; assay: Two-electrode voltage clamp in Xenopus oocytes, α3β3γ2; assay type: cell-based; details: 200 mg/kg dose
α1β3γ2 GABAA receptors = α1β3γ2 GABAA receptors (Rattus norvegicus, UniProt P18508+P62813); details: 100 nM; ref Savić et al., 2010; cited from earlier work
α2β3γ2 GABAA receptors [4] = molecular target: T3, α2β3γ2 GABAA receptors (Rattus norvegicus, UniProt P18508+P23576); assay: Two-electrode voltage clamp in Xenopus oocytes, α2β3γ2; assay type: cell-based; details: 200 mg/kg dose
α5β3γ2S GABAA receptors [5] = molecular target: T2, α5β3γ2S GABAA receptors; details: read-out: Ki at α5β3γ2 GABAA receptors; ref Savić et al., 2010; cited from earlier work
α5β3γ2 GABAA receptors [6] = molecular target: T4, α5β3γ2 GABAA receptors (Rattus norvegicus, UniProt P18508+P19969); assay: Two-electrode voltage clamp in Xenopus oocytes, α5β3γ2; assay type: cell-based
α2β3γ2 GABAA receptors [7] = molecular target: T3, α2β3γ2 GABAA receptors; details: 100 nM; ref Savić et al., 2010; cited from earlier work
[8] = Plasma protein and brain tissue binding; assay type: in vitro ADME, rat; details: rapid equilibrium dialysis
[9] = In vitro hydrolytic stability study in rat plasma; assay type: in vitro ADME; details: for % remaining in plasma (in vitro metabolic stability) / Total plasma concentration (in vitro metabolic stability): rat plasma 37 °C
Wistar rats [10] = assay: Rotarod test; assay type: in vivo, rat; details: 200 mg/kg i.p.; vs. 180 s with control animals; n = 4
α3β3γ2S GABAA receptors = α3β3γ2S GABAA receptors (Rattus norvegicus, UniProt P18508+P20236); details: read-out: Ki at α3β3γ2 GABAA receptors; ref Savić et al., 2010; cited from earlier work
[11] = Pharmacokinetic study, plasma and brain concentrations after i.p. injection; details: rat, 20 min
α5β3γ2 GABAA receptors [12] = molecular target: T4, α5β3γ2 GABAA receptors; details: 100 nM; ref Savić et al., 2010; cited from earlier work
Wistar rats [13] = details: ref Savić et al., 2008; cited from earlier work

Structure (SMILES): C#Cc1ccc2c(c1)C(c1ccccc1F)=N[C@H](C)c1c(C(=O)OCC)ncn1-2 [SH-053-2′F-R-CH3]
- % of control current, α3β3γ2 (α3β3γ2 GABAA receptors [1]): 125 ± 8%
- Selectivity in binding to α5GABAARs compared to α1-containing GABAA receptors (α5β3γ2S GABAA receptors [2]): 8 fold
- Selectivity in binding to α5GABAARs compared to α2-containing GABAA receptors (α5β3γ2S GABAA receptors [2]): 10 fold
- Ki (α2β3γ2S GABAA receptors): 948 nM
- Ki (α1β3γ2S GABAA receptors): 759 nM
- Ki (κ opioid receptor (KOR)): 240 nM
- Estimated potentiation at α3GABAARs (α3β3γ2 GABAA receptors [3]): 155%
- % of control current, α1β3γ2 (α1β3γ2 GABAA receptors): 111 ± 2%
- Estimated potentiation at α2GABAARs (α2β3γ2 GABAA receptors [4]): 171%
- Ki (α5β3γ2S GABAA receptors [5]): 95.2 nM
- Estimated potentiation of GABA-mediated currents at α5GABAARs (α5β3γ2 GABAA receptors [6]; approximated from estimated free rat brain concentration, 200 mg/kg i.p.): 280%
- Concentration needed to elicit 300% potentiation at α5GABAARs (α5β3γ2 GABAA receptors [6]; read from concentration-response curves of Savić et al., 2010): above 300 nM
- % of control current, α2β3γ2 (α2β3γ2 GABAA receptors [7]): 124 ± 9%
- Free fraction in brain tissue ([8]; rat brain tissue): 3.87%
- Free fraction in plasma ([8]; rat plasma): 68.55%
- % remaining in plasma (in vitro metabolic stability) ([9]; 0 min): 100%
- Total plasma concentration (in vitro metabolic stability) ([9]; 0 min): 0.5556 µM
- % remaining in plasma (in vitro metabolic stability) ([9]; 30 min): 76.64%
- Total plasma concentration (in vitro metabolic stability) ([9]; 30 min): 0.4258 ± 0.0042 µM
- % remaining in plasma (in vitro metabolic stability) ([9]; 60 min): 62.77%
- Total plasma concentration (in vitro metabolic stability) ([9]; 60 min): 0.3487 ± 0.0040 µM
- % remaining in plasma (in vitro metabolic stability) ([9]; 120 min): 38.27%
- Total plasma concentration (in vitro metabolic stability) ([9]; 120 min): 0.2126 ± 0.0036 µM
- % remaining in plasma (in vitro metabolic stability) ([9]; 240 min): 5.24%
- Total plasma concentration (in vitro metabolic stability) ([9]; 240 min): 0.0291 ± 0.0023 µM
- In vitro metabolic stability during incubation in rat plasma ([9]; rat, plasma): less stable
- Rotarod, time remaining on the rod (Wistar rats [10]): 154 ± 26 s
- Ki (α3β3γ2S GABAA receptors): 769 nM
- Brain free (estimated) concentration ([11]; 10 mg/kg i.p.): 29.10 ± 5.14 nmol/kg
- Brain total concentration ([11]; 10 mg/kg i.p.): 752.00 ± 132.84 nmol/kg
- Plasma free (estimated) concentration ([11]; 10 mg/kg i.p.): 278.60 ± 52.39 nmol/L
- Plasma total concentration ([11]; 10 mg/kg i.p.): 406.43 ± 76.45 nmol/L
- Brain free (estimated) concentration ([11]; 20 mg/kg i.p.): 38.85 ± 3.39 nmol/kg
- Brain total concentration ([11]; 20 mg/kg i.p.): 1003.57 ± 87.55 nmol/kg
- Plasma free (estimated) concentration ([11]; 20 mg/kg i.p.): 288.32 ± 47.99 nmol/L
- Plasma total concentration ([11]; 20 mg/kg i.p.): 420.63 ± 70.01 nmol/L
- Brain free (estimated) concentration ([11]; 30 mg/kg i.p.): 64.40 ± 14.64 nmol/kg
- Brain total concentration ([11]; 30 mg/kg i.p.): 1663.84 ± 378.29 nmol/kg
- Plasma free (estimated) concentration ([11]; 30 mg/kg i.p.): 380.78 ± 46.73 nmol/L
- Plasma total concentration ([11]; 30 mg/kg i.p.): 555.51 ± 68.18 nmol/L
- Brain free (estimated) concentration ([11]; 150 mg/kg i.p.): 147.74 ± 37.36 nmol/kg
- Brain total concentration ([11]; 150 mg/kg i.p.): 3816.79 ± 965.21 nmol/kg
- Plasma free (estimated) concentration ([11]; 150 mg/kg i.p.): 1100.14 ± 186.36 nmol/L
- Plasma total concentration ([11]; 150 mg/kg i.p.): 1604.96 ± 271.88 nmol/L
- Brain free (estimated) concentration ([11]; 200 mg/kg i.p.): 324.16 ± 89.88 nmol/kg
- Brain total concentration ([11]; 200 mg/kg i.p.): 8374.25 ± 2322.03 nmol/kg
- Plasma free (estimated) concentration ([11]; 200 mg/kg i.p.): 1876.71 ± 196.63 nmol/L
- Plasma total concentration ([11]; 200 mg/kg i.p.): 2737.87 ± 286.86 nmol/L
- % of control current, α5β3γ2 (α5β3γ2 GABAA receptors [12]): 183 ± 7%

Structure (SMILES): C#Cc1ccc2c(c1)C(c1ccccc1F)=N[C@@H](C)c1c(C(=O)OCC)ncn1-2 [SH-053-2′F-S-CH3]
- Median incapacitating dose (rotarod) (Wistar rats [13]): 219 mg/kg
